# Where no end group is shown, it is not given here.
# Legend:
# [1] = Movement activity of mouse after I.V. injection; type: in vivo; details: 10-30 min after I.V. injection of 75 ul (1 mM) into BalB/C mouse (about 20 g)
# CT-26 tumor = test: In vivo screening of tumor regression activity, CT-26 tumor in BALB/C mice; design: key to In vivo Screening: NR: no regression (no decrease on the tumor volume); ND: not determined; details: for In vivo Screening: CT-26 tumor-bearing BALB/C mice, intravenous injection; for toxicity to the experimental animals: 100 ul (1 mM) intravenously 2-3 times (1 injection/day)
# Protocol: In order to test tumor regression activity of the cell-killing CKP fusion peptides manufactured in Example 1, colon cell line, CT-26 (1.5×10^5 cells) was subcutaneously injected into dorsal skin of BALB/C mice of 6 weeks old to form tumor. After about 10 days, when the formed tumor volume reach to about 70±10 mm^3, the cancer cell specific CKP fusion peptide 100 ul (1 mM) was intravenously injected continuously 2-3 times (1 injection/day) into 3 mice, respectively, and after 10-13 days, change on the tumor tissue volume (length×wide^2×0.5) was observed.
# [2] = system: HeLa cells, cervical cancer cell line; test: Cell-killing activity of CKP peptide variants in HeLa, crystal violet staining; type: cell-based, human; details: 0-40 μM, 24 hours, peptides linked to PTD RRRRRRRRG
# Description: In order to examine whether variants, in which some amino acids of the CKP peptide (SEQ ID NO: 21; KLLNLISKLF) of the present invention are substituted, also have cell-killing activity or not, CKP2 (1 amino acid was substituted) (SEQ ID NO: 22; KALNLISKLF), CKP3 (2 amino acids were substituted) (SEQ ID NO: 23; KLAALISKLF), CKP4 (2 amino acids were substituted) (SEQ ID NO: 24; KLLNLIAALF) and CKP5 (3 amino acids were substituted) (SEQ ID NO: 25; KALNLIAALF), which are CKP peptide variants in which 1-3 of amino acid residues linked to the known protein transduction domain (PTD) having RRRRRRRRG (RQ) sequence are substituted, were synthesized by the procedure described in Example 1. Further, in order to investigate influence of substitution at the leucine's repeat in the CKP, the CKP peptide variants, CKP6 (2nd and 3rd L were substituted to A) (SEQ ID NO: 26; KAANLISKLF), CKP7 (5th L was substituted to A) (SEQ ID NO: 27; KLLNAISKLF) and CKP8 (9th L was substituted to A) (SEQ ID NO: 28; KLLNLISKAF) linked to the RRRRRRRRG (RQ) sequence of the protein transduction domain (PTD) were synthesized by the procedure described in Example 1. In order to test cell-killing activity of the variants, a cervical cancer cell line, HeLa cells were cultured, and the culture medium was replaced with culture medium containing 0, 1, 5, 10, 15, 20, 30 and 40 μM CKP peptide, respectively, followed by further culturing for 24 hours. Living cells attached to the bottom were stained with 100 μl 0.5% crystal violet solution for 10 min, and washed off with distilled water or tap water to remove dead cells floating on the culture medium and also to destain the crystal violet solution. Then, the cells were observed by photography after placing the culture vessel under a fluorescent lamp box as depicted in FIG. 14. The living cells attached to the bottom and stained with the crystal violet were appeared blue color. […] Accordingly, it was identified that the Leucine sequence is a region playing a critical role in cell-killing activity of the CKP.
# cells = details: in 10 minutes; cited from earlier work
# liver tissue = test: Toxicity in normal tissue (liver), histology; type: in vivo, mouse; details: intravenous injection, liver sections by the time
# Protocol: In order to evaluate the degree of toxicity to the liver tissue, liver tissue section was prepared as described in Example 8, and pathologically observed in a normal mice group not treated with the peptide, a tumor-formed group intravenously injected with 0.85% normal saline and groups intravenously injected with the cell-killing CKP fusion peptide by the time.
# splenocytes = test: Normal cell necrosis activity in splenocytes by XTT method; type: cell-based, mouse; details: splenocytes from BALB/c mice, 5, 10 and 20 μM, after 15 min
# Description: In order to test cell necrosis inducing activity of the cell-killing CKP fusion peptide (CTD7:CKP) selected in Example 3 in normal cells, primary peritoneal macrophages and splenocytes were isolated from BALB/c mice.
# In order to obtain splenocytes, complete RPMI media was put into a cell culture dish, male mouse spleen was isolated, and tissue thereof was crushed and centrifuged. Pellet was washed once with media and centrifuged again, and ACK lysis buffer (0.15 M NH4Cl, […], 0.01 M Na2EDTA, pH 7.2-7.4) was added thereto and centrifuged again. Then the pellet was cultured in 5% FBS-containing complete RPMI media for primary culture of the splenocytes, and the media was replaced with culture medium containing 5, 10 and 20 μM of the cell-killing CKP fusion peptide (CTD7:CKP), and after 15 min, cell necrosis inducing activity was confirmed by XTT method.
# [3] = Hepatocyte toxicity: ALT and AST released to blood; type: in vivo, mouse; details: blood of treated groups by the time versus untreated control group
# Protocol: In order to confirm toxicity of the cell-killing CKP fusion peptide (CTD7:CKP), the amounts of alanine amino transferase (ALT) and aspartate amino transferase (AST) released to blood from hepatocytes of the damaged liver were measured and whether the hepatocytes was damaged or not was confirmed, so as to judge toxicity by the cell-killing CKP fusion peptide.
sequence,measurement,setting,value
"CGKRKGGKLLNLISKLF [CTD2:CKP, CGKRKGGKLLNLISKLF]",Movement Activities,[1],Normal
CGRDKGPDCKLLNLISKLF (Cell killing fusion peptide) [CTD12:CKP],Movement Activities,[1],Normal
CNGRCGGKLLNLISKLF (Cell killing fusion peptide) [CTD1:CKP],In vivo Screening,CT-26 tumor,NR
same,Movement Activities,[1],Slow
"CRGDKGGKLLNLISKLF [CTD18:CKP, CRGDKGGKLLNLISKLF]",Movement Activities,[1],Slow
CRGDKGPDCKLLNLISKLF (Cell killing fusion peptide) [CTD15:CKP],Movement Activities,[1],Normal
KAANLISKLF [CKP6],cell-killing activity compared with the CKP peptide,[2],much decreased cell-killing activity
KALNLIAALF [CKP5],cell-killing activity compared with the CKP peptide,[2],slightly decreased cell-killing activity
KALNLISKLF [CKP2],cell-killing activity compared with the CKP peptide,[2],slightly decreased cell-killing activity
KLAALISKLF [CKP3],cell-killing activity compared with the CKP peptide,[2],slightly decreased cell-killing activity
KLLNAISKLF [CKP7],cell-killing activity compared with the CKP peptide,[2],much decreased cell-killing activity
KLLNLIAALF [CKP4],cell-killing activity compared with the CKP peptide,[2],better cell-killing activity
KLLNLISKAF [CKP8],cell-killing activity compared with the CKP peptide,[2],much decreased cell-killing activity
KLLNLISKLF (Cell Killing Peptide) [MTD],cells killed (cell necrosis effect),cells,≥ 80%
KLLNLISKLFCGRDKGPDC (Cell killing fusion peptide) [CTD13:CKP],Movement Activities,[1],Normal
KLLNLISKLFCGRDKRLYDC (Cell killing fusion peptide) [CTD14:CKP],toxicity to the experimental animals,CT-26 tumor,dead
same,In vivo Screening,CT-26 tumor,Dead
same,Movement Activities,[1],Dead
KLLNLISKLFCRGDKGPDC (Cell killing fusion peptide) [CTD16:CKP],Movement Activities,[1],Slow
KLLNLISKLFCRGDKRLYDC (Cell killing fusion peptide) [CTD17:CKP],toxicity to the experimental animals,CT-26 tumor,toxicity removing the injected tail by necrosis
same,In vivo Screening,CT-26 tumor,Toxic
same,Movement Activities,[1],Slow
"KLLNLISKLFGGCGKRK [CTD3:CKP, KLLNLISKLFGGCGKRK]",Movement Activities,[1],Normal
"KLLNLISKLFGGCRGDK [CTD19:CKP, KLLNLISKLFGGCRGDK]",Movement Activities,[1],Normal
KLLNLISKLFGGLGDRGDR (Cell killing fusion peptide) [CTD10:CKP],In vivo Screening,CT-26 tumor,NR
"KLLNLISKLFGGRLLRLLR [CTD6:CKP, KLLNLISKLFGGRLLRLLR]",toxicity to the experimental animals,CT-26 tumor,toxicity removing the injected tail by necrosis
same,Movement Activities,[1],Normal
"KLLNLISKLFGGRPARPAR [CTD8:CKP, KLLNLISKLFGGRPARPAR]",Movement Activities,[1],Slow
"RLLRLLRGGKLLNLISKLF [CTD5:CKP, RLLRLLRGGKLLNLISKLF]",toxicity to the experimental animals,CT-26 tumor,toxicity removing the injected tail by necrosis
same,Movement Activities,[1],Slow
"RPARPARGGKLLNLISKLF [CTD7:CKP, RPARPARGGKLLNLISKLF]",damage of liver tissue (histology),liver tissue,any significant damage was not observed
same,cell-killing activity in normal cells,splenocytes,did not show significant cell-killing activity
same,toxicity to the experimental animals,CT-26 tumor,no toxicity
same,ALT released to blood (liver damage index),[3],no difference
same,AST released to blood (liver damage index),[3],no difference
same,Movement Activities,[1],Normal
WDLAWMFRLPVGKLLNLISKLF [CTD11:CKP],Movement Activities,[1],Normal
"WIFPWIQLKLLNLISKLF [CTD4:CKP, WIFPWIQLKLLNLISKLF]",toxicity to the experimental animals,CT-26 tumor,toxicity removing the injected tail by necrosis
same,Movement Activities,[1],Slow
